Patent US10627395B2, “Methods and systems for biomonitoring” (Newomics Inc., priority 2015, dated 2020)
Like-named read-outs stand apart in the source and are kept apart here. One block for each compound: values may come before it.

How the values were obtained:
[1] = NIST SRM 1950 human plasma; reference value provided by NIST; cited from earlier work
[2] = On-chip SPE-nanoLC-MS quantification of PFCs in human blood samples
Method: Standard stock PFCs solutions are prepared by diluting PFC standards (a list of which is shown in Table 2) in methanol in polypropylene vials. All glassware is rinsed with methanol before use. For plasma samples spiked with PFCs, frozen pooled human plasma is obtained from Innovative Research Inc. (Novi, Mich.). A 5 microliter aliquot of human plasma is thawed and mixed with 2.5 microliters of internal standards (^13C8-PFOA and ^13C8-PFOS, 50 ng/ml), 2.5 microliters of PFC standards with desired concentration, and 20 microliters of cold acetonitrile with 0.1% formic acid. After vortexing for 2 min, the mixture is sonicated for 10 min and then centrifuged at 14,000 g for 15 min. 24 microliters of the supernatant is taken out and allowed to evaporate at room temperature until the volume is reduced to around 16 microliters. All samples are stored in polypropylene vials at minus 20 degree Celsius. Standard Reference Materials (SRMs) 1950 Metabolites in Human Plasma ordered from National Institute of Standards and Technology (NIST) are stored at minus 80 degree Celsius before use. NIST SRM 1950 is thawed at room temperature and prepared by the same procedure as pooled plasma samples for validation of the chip performance.
The SPE run starts with conditioning a C18-packed SPE column by flowing 20 microliters of LC solvent B (95%/5% methanol/H2O with 2 mM ammonium acetate) at 10 microliters/min through the inlet port P1. The column is then equilibrated with 20 microliters of LC solvent A (5%/95% methanol/H2O with 2 mM ammonium acetate) at 10 microliters/min. Four microliters of the sample (containing lmicroliters of plasma) are injected into a 20-microliter sample loop and loaded onto the SPE column, followed by washing with 20 microliters of LC solvent A at 10 microliters/min. Next, the analytes are eluted from the SPE column with LC solvent B at 1 microliter/min and transferred to the trap column by mixing it with another stream of LC solvent A through the port P3 (20 microliters/min). The passive microfluidic mixer including herringbone structures enables efficient mixing of two streams and thus prevents heterogeneous streaming of organic solvent from the SPE eluent, allowing the analytes to be enriched on the trap column efficiently. Finally the HPLC gradient elution at flow rate of 600 nl/min is run to separate the analytes that are to be analyzed by nanoESI-MS. The LC solvent A consists of 5%/95% methanol/H2O with 2 mM ammonium acetate, and solvent B consists of 95%/5% methanol/H2O with 2 mM ammonium acetate. […] After that, it is increased to 95% B in 5 minutes and held at 95% B for 5 minutes. Finally it returns to the initial condition (10% B) in 2 minutes and is held for 5 minutes. The total time period for each SPE-LC-MS run is about one hour. Negative-ion-mode MS detection are performed on a hybrid quadrupole/orthogonal Q-TOF API US mass spectrometer (Waters Corp.). The capillary voltage and cone voltage are set to −2.4 kV and 25 V, respectively, and the collision energy is fixed at 10 eV. The nanoelectrospray process on emitters is visualized and monitored using a Waters nanoflow camera kit equipped with a MLH-10 Zoom lenses (Computar).
The raw LC-MS data are processed using MassLynx 4.0 software package provided with the Q-TOF API US instrument (Waters Corp.). Extracted ion chromatograms (EIC) for all target analytes are generated using their corresponding precursor/product ions with a mass window of 0.10 Da. The peak area ratio of each analyte relative to its corresponding isotope-labelled internal standard is used for quantification. For perfluorocarboxylate compounds, their product ions are used for quantitation, because their product ions are more abundant (3-5 times) than precursor ions under current MS settings. The abundance ratio between the product ion and precursor ion for each perfluorocarboxylate compound is found to be consistent over the wide concentration range (1-100 ng/ml). […]

[3] = U.S. population of 20 years and older, cited from earlier work
[4] = molecular target: human serum albumin (HSA) (Homo sapiens, UniProt P02768); settings: cited from earlier work
Sequence of human serum albumin (HSA) (P02768 25-609): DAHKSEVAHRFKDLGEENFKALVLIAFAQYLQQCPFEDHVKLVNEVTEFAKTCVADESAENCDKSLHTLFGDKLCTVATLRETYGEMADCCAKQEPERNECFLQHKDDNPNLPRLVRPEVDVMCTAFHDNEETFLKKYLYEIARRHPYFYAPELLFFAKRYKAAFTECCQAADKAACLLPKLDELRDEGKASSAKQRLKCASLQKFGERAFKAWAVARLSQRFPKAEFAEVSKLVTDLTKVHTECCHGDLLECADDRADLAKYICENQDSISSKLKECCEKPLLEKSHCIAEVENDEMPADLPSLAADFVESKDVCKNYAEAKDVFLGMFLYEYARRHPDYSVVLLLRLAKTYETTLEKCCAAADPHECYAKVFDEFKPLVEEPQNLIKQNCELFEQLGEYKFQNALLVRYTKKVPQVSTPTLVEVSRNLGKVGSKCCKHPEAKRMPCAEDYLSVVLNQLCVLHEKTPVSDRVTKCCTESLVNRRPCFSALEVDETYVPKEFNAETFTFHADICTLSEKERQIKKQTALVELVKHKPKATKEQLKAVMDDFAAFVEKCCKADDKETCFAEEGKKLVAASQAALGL

[5] = NIST SRM 1950 human plasma, SPE-LC-MS chip
[6] = pooled human plasma, SPE-LC-MS chip

Structure (SMILES): O=C(O)C(F)(F)C(F)(F)C(F)(F)C(F)(F)C(F)(F)C(F)(F)C(F)(F)C(F)(F)C(F)(F)F [PFDeA, Perfluorodecanoic acid]
- Concentration of PFCs, NIST SRM 1950, Reference Value [1]: 0.322 ± 0.007 ng/mL
- Concentration of PFCs, NIST SRM 1950, Measured Value [2, 5]: 0.364 ± 0.033 ng/mL
- Concentration of PFCs, Pooled plasma, Measured Value [2, 6]: 0.279 ng/mL
- Individual serum, National Exposure Report by CDC, geometric mean (95% confidence interval) ([3]; survey year 2009-2010): 0.289 (0.265-0.314) ng/ml
- Individual serum, National Exposure Report by CDC, geometric mean (95% confidence interval) ([3]; survey year 2011-2012): 0.209(0.189-0.230) ng/ml

Structure (SMILES): O=S(=O)(O)C(F)(F)C(F)(F)C(F)(F)C(F)(F)C(F)(F)C(F)(F)F [PFHxS, Perfluorohexane sulfonic acid]
- Concentration of PFCs, NIST SRM 1950, Reference Value [1]: 3.25 ± 0.080 ng/mL
- Concentration of PFCs, NIST SRM 1950, Measured Value [2, 5]: 3.53 ± 0.38 ng/mL
- Concentration of PFCs, Pooled plasma, Measured Value [2, 6]: 1.18 ng/mL
- Individual serum, National Exposure Report by CDC, geometric mean (95% confidence interval) ([3]; survey year 2009-2010): 1.61 (1.45-1.79) ng/ml
- Individual serum, National Exposure Report by CDC, geometric mean (95% confidence interval) ([3]; survey year 2011-2012): 1.28 (1.14-1.43) ng/ml

Structure (SMILES): O=C(O)C(F)(F)C(F)(F)C(F)(F)C(F)(F)C(F)(F)C(F)(F)C(F)(F)F [PFOA, Perfluorooctanoic acid]
- number of PFOA binding sites to human serum albumin (HSA) [4]: over 6
- PFOA bound to HSA in human blood ([4]; human blood): more than 90%

Structure (SMILES): O=S(=O)(O)C(F)(F)C(F)(F)C(F)(F)C(F)(F)C(F)(F)C(F)(F)C(F)(F)C(F)(F)F [PFOS, Perfluorooctane sulfonic acid]
- Concentration of PFCs, NIST SRM 1950, Reference Value [1]: 10.6 ± 0.13 ng/mL
- Concentration of PFCs, NIST SRM 1950, Measured Value [2, 5]: 11.1 ± 0.36 ng/mL
- Concentration of PFCs, Pooled plasma, Measured Value [2, 6]: 4.76 ng/mL
- Individual serum, National Exposure Report by CDC, geometric mean (95% confidence interval) ([3]; survey year 2009-2010): 9.72 (8.45-11.2) ng/ml
- Individual serum, National Exposure Report by CDC, geometric mean (95% confidence interval) ([3]; survey year 2011-2012): 6.71 (6.24-7.20) ng/ml

- Concentration of PFCs, NIST SRM 1950, Measured Value ([2]; human): 0.172 ± 0.078 ng/mL
- Concentration of PFCs, Pooled plasma, Measured Value ([2]; human): 0.094 ng/mL
Structure (SMILES): NS(=O)(=O)C(F)(F)C(F)(F)C(F)(F)C(F)(F)C(F)(F)C(F)(F)C(F)(F)C(F)(F)F [PFOSA, Perfluorooctane sulfonamide]
- Individual serum, National Exposure Report by CDC, geometric mean (95% confidence interval) ([3]; survey year 2009-2010): <0.1; <0.1 ng/ml
- Individual serum, National Exposure Report by CDC, geometric mean (95% confidence interval) ([3]; survey year 2011-2012): <0.1; <0.1 ng/ml
